“And” between values parts separate entries of the source, which are not always exact repeats. Identical values can stand only once. Like-named read-outs stand apart in the source and are kept apart here.
Columns and labels:
15-LO = 15-LO inhibition in intact human neutrophils; conditions: read-out: IC50 (15-LO), without DTT
TRPV1 = TRPV1 (Homo sapiens, UniProt Q8NER1); test: TRPV1 functional agonist assay, Cerep (intracellular Ca2+); type: cell-based; conditions: TRPV1 (agonist), 150 µM
EP1 = biological target: T1, EP1 (Homo sapiens, UniProt P34995); test: EP1 functional antagonist assay, Cerep (PGE2 3 nM, intracellular Ca2+)
T1 sequence (P34995 1-402): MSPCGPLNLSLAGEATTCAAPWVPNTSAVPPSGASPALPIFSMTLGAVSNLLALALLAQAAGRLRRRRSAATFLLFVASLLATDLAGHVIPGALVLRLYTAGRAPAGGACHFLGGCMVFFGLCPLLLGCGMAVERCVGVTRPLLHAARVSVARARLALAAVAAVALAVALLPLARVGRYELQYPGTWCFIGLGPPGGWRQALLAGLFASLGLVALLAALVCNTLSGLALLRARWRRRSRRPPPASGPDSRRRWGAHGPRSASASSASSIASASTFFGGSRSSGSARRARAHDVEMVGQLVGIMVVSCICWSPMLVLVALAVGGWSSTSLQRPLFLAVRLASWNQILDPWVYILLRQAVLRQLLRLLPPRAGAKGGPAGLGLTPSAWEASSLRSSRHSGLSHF

PKCβ2 = PKCβ2 (Homo sapiens, UniProt P05771); test: ExpresS Diversity Kinase Profile, Cerep (LANCE): PKCβ2; type: biochemical
TRPM8 = biological target: T2, TRPM8 (Homo sapiens, UniProt Q7Z2W7); test: TRPM8 functional antagonist assay, Cerep (icilin 100 nM); type: cell-based
T2 construct: Cerep, SA (fee-for-service assay) printed G018533 (citation number 33 glued on)

CHK2 = CHK2 (Homo sapiens, UniProt O96017); test: ExpresS Diversity Kinase Profile, Cerep (LANCE): CHK2; type: biochemical
EP2 = EP2 (Homo sapiens, UniProt P43116); test: EP2 functional agonist assay, Cerep (cAMP, HTRF)
PLK1 = PLK1 (Homo sapiens, UniProt P53350); test: ExpresS Diversity Kinase Profile, Cerep (LANCE): PLK1; type: biochemical
Lck = Lck (Homo sapiens, UniProt P06239); test: ExpresS Diversity Kinase Profile, Cerep (LANCE): Lck; type: biochemical
5-LO = biological target: T3, 5-LO (Homo sapiens, UniProt P09917); test: 5-LO product formation in neutrophil homogenates
T3 sequence (P09917 1-674): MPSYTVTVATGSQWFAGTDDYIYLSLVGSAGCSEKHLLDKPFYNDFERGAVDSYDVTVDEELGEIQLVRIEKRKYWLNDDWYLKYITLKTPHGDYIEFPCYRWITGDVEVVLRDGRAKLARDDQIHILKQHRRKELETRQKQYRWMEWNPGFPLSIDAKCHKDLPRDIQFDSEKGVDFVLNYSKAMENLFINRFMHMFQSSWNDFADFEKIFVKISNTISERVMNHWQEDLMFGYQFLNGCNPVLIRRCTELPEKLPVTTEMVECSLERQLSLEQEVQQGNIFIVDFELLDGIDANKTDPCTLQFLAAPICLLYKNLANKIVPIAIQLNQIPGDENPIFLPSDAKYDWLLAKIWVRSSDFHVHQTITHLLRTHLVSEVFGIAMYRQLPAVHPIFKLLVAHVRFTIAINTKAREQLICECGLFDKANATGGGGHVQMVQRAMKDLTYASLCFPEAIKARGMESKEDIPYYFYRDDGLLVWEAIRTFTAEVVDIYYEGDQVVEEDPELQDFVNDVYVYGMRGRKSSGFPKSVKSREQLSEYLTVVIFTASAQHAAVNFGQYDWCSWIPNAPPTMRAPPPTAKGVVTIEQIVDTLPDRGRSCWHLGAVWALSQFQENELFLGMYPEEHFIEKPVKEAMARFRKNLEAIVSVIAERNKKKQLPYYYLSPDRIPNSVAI

12-LO = biological target: T4, 12-LO (Homo sapiens, UniProt P18054); test: 12-LO inhibition assay, Cerep (Method A, photometry); type: biochemical
T4 sequence (P18054 1-663): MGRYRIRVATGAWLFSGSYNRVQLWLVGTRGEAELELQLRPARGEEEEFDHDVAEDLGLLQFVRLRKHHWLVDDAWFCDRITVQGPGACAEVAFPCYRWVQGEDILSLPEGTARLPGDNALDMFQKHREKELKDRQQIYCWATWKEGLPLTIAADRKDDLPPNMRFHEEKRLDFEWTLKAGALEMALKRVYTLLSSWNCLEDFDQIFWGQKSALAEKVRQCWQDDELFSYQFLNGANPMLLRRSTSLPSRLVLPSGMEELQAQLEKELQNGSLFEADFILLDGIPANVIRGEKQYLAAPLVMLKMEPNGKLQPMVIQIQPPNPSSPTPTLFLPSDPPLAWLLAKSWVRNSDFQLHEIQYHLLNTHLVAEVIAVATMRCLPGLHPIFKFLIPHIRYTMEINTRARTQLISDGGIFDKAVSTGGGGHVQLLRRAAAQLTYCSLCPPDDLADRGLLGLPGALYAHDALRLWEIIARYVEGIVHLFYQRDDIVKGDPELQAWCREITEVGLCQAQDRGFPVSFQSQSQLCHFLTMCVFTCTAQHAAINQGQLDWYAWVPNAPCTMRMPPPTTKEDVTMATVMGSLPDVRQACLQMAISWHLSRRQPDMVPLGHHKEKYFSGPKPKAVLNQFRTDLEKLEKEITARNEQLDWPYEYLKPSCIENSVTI

CDK2 = CDK2 (Homo sapiens, UniProt P24941); test: ExpresS Diversity Kinase Profile, Cerep (LANCE): CDK2; type: biochemical
Abl = Abl (Homo sapiens, UniProt P00519); test: ExpresS Diversity Kinase Profile, Cerep (LANCE): Abl; type: biochemical
[1] = read-out: % of control values, 1st measurement
[2] = read-out: % of control values, 2nd measurement
[3] = n = 2, read-out: % Inhibition of control values, Mean
[4] = read-out: % Inhibition of control values, 1st measurement
[5] = read-out: % Inhibition of control values, 2nd measurement
[6] = Flag: Interference, read-out: % Inhibition of control values, 1st measurement
[7] = Flag: Interference, read-out: % Inhibition of control values, 2nd measurement
[8] = n = 2, Flag: Interference, read-out: % Inhibition of control values, Mean

TRPV1, sequence (Q8NER1 whole entry): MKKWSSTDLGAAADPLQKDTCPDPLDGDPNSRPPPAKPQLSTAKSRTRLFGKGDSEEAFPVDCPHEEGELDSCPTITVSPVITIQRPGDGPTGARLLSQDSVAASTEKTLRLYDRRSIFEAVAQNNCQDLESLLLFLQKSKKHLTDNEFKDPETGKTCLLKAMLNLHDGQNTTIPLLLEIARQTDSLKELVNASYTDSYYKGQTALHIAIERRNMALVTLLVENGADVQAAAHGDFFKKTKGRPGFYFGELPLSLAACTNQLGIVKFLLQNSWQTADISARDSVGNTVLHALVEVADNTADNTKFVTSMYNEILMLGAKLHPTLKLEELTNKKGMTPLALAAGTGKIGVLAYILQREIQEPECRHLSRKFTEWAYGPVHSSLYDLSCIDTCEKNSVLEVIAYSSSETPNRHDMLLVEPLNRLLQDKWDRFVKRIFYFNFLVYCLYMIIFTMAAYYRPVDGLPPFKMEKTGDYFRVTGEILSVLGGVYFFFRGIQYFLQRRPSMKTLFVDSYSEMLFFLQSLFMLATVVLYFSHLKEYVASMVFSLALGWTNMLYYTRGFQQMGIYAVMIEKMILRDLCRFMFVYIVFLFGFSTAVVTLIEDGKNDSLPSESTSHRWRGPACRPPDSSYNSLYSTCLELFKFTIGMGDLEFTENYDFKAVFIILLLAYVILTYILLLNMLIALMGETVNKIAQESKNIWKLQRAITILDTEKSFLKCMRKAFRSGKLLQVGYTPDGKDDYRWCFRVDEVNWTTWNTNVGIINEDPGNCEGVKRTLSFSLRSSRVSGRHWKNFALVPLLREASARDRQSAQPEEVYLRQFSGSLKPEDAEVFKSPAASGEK
Lck, sequence (P06239 whole entry): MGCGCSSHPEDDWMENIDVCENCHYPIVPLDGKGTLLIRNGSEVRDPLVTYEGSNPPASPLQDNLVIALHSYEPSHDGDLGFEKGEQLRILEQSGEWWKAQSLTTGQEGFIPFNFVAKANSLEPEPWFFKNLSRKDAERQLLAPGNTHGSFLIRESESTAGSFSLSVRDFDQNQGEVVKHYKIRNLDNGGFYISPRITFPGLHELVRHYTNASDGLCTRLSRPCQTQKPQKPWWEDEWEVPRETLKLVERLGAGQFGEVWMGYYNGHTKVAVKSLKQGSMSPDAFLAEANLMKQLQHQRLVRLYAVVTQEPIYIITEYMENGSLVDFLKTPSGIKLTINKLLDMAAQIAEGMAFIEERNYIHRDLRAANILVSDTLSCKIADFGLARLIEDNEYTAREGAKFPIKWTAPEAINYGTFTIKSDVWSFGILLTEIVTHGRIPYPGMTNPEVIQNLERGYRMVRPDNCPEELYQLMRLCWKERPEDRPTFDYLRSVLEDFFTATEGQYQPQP
PKCβ2, sequence (P05771 1-673 isoform P05771-2): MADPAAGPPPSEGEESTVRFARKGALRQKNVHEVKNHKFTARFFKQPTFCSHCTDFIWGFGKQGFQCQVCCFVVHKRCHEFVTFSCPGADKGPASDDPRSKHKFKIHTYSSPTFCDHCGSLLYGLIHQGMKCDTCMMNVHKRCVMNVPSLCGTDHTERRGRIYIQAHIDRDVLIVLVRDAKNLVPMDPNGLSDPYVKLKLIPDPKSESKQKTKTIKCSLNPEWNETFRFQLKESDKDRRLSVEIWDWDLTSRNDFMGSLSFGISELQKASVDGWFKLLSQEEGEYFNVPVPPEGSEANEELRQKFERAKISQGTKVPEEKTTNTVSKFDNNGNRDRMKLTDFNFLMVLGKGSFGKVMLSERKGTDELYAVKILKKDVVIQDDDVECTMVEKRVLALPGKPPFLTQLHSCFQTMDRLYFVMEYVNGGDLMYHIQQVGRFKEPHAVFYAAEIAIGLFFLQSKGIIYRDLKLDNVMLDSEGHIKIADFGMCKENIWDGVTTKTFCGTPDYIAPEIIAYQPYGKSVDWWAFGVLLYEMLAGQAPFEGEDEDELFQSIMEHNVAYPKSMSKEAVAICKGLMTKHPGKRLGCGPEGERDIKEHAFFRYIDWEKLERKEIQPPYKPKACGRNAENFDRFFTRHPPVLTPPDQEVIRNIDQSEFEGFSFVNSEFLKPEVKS
PLK1, sequence (P53350 whole entry): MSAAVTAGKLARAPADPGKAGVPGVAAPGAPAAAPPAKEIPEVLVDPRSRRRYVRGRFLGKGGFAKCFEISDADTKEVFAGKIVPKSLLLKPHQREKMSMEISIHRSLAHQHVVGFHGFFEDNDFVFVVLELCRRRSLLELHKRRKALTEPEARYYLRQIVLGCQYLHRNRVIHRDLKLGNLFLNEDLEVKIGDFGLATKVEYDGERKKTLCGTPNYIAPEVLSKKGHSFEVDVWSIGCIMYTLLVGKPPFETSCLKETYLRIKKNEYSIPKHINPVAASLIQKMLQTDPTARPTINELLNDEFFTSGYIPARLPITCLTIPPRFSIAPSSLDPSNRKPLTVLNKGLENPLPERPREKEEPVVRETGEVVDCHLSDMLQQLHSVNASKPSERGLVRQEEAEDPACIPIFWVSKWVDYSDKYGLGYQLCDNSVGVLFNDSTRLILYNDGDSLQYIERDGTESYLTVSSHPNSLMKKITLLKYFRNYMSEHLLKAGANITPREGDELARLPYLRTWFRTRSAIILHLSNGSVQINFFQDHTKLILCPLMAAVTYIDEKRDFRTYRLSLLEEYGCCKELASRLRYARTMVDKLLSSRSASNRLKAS
Abl, sequence (P00519 whole entry): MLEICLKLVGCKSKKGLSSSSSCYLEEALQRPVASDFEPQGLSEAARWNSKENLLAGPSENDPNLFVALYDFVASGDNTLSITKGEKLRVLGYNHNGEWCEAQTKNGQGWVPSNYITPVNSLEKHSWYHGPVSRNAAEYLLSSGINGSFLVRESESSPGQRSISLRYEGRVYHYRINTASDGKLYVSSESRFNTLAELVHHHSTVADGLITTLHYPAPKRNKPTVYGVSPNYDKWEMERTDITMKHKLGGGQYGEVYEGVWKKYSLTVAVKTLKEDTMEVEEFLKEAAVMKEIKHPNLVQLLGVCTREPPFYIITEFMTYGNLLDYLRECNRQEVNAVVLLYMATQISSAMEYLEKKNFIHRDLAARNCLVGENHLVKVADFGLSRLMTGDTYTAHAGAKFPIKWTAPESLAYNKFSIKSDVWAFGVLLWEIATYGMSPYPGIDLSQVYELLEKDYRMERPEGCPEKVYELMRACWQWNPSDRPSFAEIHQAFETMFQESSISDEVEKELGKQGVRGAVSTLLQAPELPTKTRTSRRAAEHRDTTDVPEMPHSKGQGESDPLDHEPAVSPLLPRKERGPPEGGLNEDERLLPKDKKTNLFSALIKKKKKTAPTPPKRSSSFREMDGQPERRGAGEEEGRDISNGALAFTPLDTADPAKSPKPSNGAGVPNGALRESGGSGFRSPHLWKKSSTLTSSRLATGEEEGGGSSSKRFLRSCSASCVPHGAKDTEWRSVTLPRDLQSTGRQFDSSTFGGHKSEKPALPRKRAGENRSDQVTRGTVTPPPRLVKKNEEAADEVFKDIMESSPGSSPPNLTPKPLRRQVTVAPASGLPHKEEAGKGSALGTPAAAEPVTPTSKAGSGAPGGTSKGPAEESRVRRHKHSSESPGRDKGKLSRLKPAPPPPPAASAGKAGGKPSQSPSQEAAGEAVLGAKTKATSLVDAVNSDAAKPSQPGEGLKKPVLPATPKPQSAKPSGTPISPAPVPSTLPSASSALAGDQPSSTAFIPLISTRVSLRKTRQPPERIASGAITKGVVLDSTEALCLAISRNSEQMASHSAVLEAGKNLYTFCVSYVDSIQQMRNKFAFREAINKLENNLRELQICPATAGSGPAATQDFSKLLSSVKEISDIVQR
EP2, sequence (P43116 whole entry): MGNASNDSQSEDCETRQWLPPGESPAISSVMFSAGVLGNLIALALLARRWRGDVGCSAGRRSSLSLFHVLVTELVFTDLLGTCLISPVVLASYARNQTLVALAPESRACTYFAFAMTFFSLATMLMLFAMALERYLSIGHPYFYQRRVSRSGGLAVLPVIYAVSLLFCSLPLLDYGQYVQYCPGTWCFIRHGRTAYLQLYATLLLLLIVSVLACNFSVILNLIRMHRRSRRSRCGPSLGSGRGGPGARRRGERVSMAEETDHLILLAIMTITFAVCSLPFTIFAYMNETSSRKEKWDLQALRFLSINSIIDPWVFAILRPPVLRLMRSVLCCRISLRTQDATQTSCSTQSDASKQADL
CHK2, sequence (O96017 whole entry): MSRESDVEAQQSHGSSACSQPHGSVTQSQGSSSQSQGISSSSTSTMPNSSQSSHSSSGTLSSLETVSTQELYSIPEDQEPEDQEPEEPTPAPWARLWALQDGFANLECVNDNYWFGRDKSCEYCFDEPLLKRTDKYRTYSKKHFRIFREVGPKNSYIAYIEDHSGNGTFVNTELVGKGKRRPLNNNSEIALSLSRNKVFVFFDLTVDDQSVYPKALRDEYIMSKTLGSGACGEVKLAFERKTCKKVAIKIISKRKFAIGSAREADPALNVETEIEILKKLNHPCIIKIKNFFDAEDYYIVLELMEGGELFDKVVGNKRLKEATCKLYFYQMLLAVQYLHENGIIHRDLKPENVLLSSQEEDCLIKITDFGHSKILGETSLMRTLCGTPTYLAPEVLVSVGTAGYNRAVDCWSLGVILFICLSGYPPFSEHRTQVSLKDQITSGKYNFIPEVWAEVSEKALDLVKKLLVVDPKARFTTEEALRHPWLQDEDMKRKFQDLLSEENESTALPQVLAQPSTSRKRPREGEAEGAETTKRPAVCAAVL

CC1(C)CCC2=C(O1)c1ccccc1C(=O)C2=O [β-Lapachone]
IC50 (15-LO): > 30000 nM
remaining activity at 150 µM (TRPV1; n = 2, read-out: % of control values, Mean): -4.6%
remaining activity at 150 µM (TRPV1; [1]): -7.3%
remaining activity at 150 µM (TRPV1; [2]): -1.9%
IC50 (EP1): > 100000 nM
inhibition at 150 µM (PKCβ2; [3]): 34%
inhibition at 150 µM (PKCβ2; [4]): 36.5%
inhibition at 150 µM (PKCβ2; [5]): 31.6%
IC50 (TRPM8): > 100000 nM
inhibition at 150 µM (CHK2; [6]): 46.6%
inhibition at 150 µM (CHK2; [7]): 59.5%
inhibition at 150 µM (CHK2; [8]): 53.1%
remaining activity at 150 µM (EP2; [1]): 12.3%
remaining activity at 150 µM (EP2; [2]): 14.8%
remaining activity at 150 µM (EP2; read-out: % of control values, Mean): 13.5%
inhibition at 150 µM (PLK1; [3]): 60%
inhibition at 150 µM (PLK1; [4]): 61.1%
inhibition at 150 µM (PLK1; [5]): 58.9%
inhibition at 150 µM (Lck; [6]): -32.6%
inhibition at 150 µM (Lck; [7]): -37.7%
inhibition at 150 µM (Lck; [8]): -35.2%
IC50 (5-LO; IC50 (with DTT), neutrophil homogenates with 1 mM DTT, n = 3): 90 nM and 85 nM
IC50 (5-LO; IC50 (without DTT), neutrophil homogenates without DTT, n = 3): 5200 nM
IC50 (5-LO; IC50, neutrophil homogenates with 1 mM dithiothreitol): 85.5 nM
inhibition at 5 µM (12-LO; 12-LO, 5 µM, read-out: % inhibition of control values, 1st measure): 40.7%
inhibition at 5 µM (12-LO; 12-LO, 5 µM, read-out: % inhibition of control values, 2nd measure): 35.3%
inhibition at 5 µM (12-LO; read-out: % inhibition of control values, Mean): 38%
inhibition at 150 µM (CDK2; [3]): 78.2%
inhibition at 150 µM (CDK2; [4]): 79.4%
inhibition at 150 µM (CDK2; [5]): 77.1%
inhibition at 150 µM (Abl; [3]): 42.4%
inhibition at 150 µM (Abl; [4]): 42.9%
inhibition at 150 µM (Abl; [5]): 41.8%

— article PMC6138237, “Machine intelligence decrypts β-lapachone as an allosteric 5-lipoxygenase inhibitor” (Chemical Science, 2018)
